The subject of one test is Low Density Lipoprotein. Kind of test: Inhibition of Copper Ion Mediated Oxidation of Low Density Lipoprotein. Type of test: biochemical. The following applies: Cu^+2 mediated oxidation of rabbit or monkey LDL. The method, then: 5. Inhibition of Copper Ion Mediated Oxidation of Low Density Lipoprotein
In this in vitro assay, the inhibition of Cu^+2 mediated oxidation of rabbit or monkey LDL by an invention compound is determined spectrophotometricallly. Oxidation of LDL results in the formation of LDL-diene which absorbs light at 532 nm. Inhibition of oxidation of LDL leads to a decrease in absorbance at 532 nm.
Rabbit or monkey LDL is prepared according to the procedures of Havel, Eder and Gragdon, "The Distribution and Chemical Composition of Ultracentrifugally Separated Lipoproteins in Human Serum,: J, Clin. Invest. 34, 1345-1353 (1955) and Parhtasarathy, Wieland and Steriberg, "A Role for Endothelial Cell Lipoxygenase in the Oxidative Modification of Low Density Lipoprotein," Proc, Natl. Acad. Sci. USA 86, 1046-1050 (1989). Test compound solutions are prepared by dissolving the invention compounds in ethanol at concentrations up to 248 μM. The medium used is Dulbecco's phosphate buffered saline containing 0.5 mg/ml bovine serum albumin. For standards, 0 to 10 μl of an aqueous solution of 1,1,3,3-tetraethoxypropane (1 μmol/ml H2 O) in 4.1 ml of medium is used.
Test compound solution (100 μl) is added to 4 ml of medium in incubation tubes. To each tube is added 10 μl of LDL solution and 25 μl of aqueous copper sulfate solution (1.32 mg/ml H2 O ). The tubes are incubated at 37° C. for 90 minutes and the oxidation reaction quenched by addition of 1 ml of thiobarbituric acid solution (0.67% in 50% acetic acid). The tubes are heated at 90° C. for 1 hour, then chilled in an ice bath and the chromophore extracted into 2 ml of n-butanol. Absorbence is read at 532 nm and the results are reported as nmols of malondialdehyde equivalents.
Significant differences (p<0.05) are determined by the Dunnett T-test or by the Student-Newman-Keuls Test for significant differences between means. The assay is conducted using several concentrations I! of the inhibitor test compounds. The LDL solution concentrations at different experiments were either 1.5 mg/ml, 2.5 mg/ml or 10.3 mg/ml. The IC50 is determined by non-linear regression, plotting log I! vs. % inhibition. (Reference: K. Yagi, Biochemical Medicine 15, 212-216 (1976)).

A further test concerns Lipoxygenase. The test is described as follows: Ex-Vivo Measurement of Lipoxygenase Inhibition in Orally Dosed Rats (LTB4 in A23187-stimulated blood). Also on record: species or system Male Sprague Dawley rats. The following applies: 10 mg/kg, p.o. The protocol:
2. Ex-Vivo Measurement of Lipoxygenase Inhibition in Orally Dosed Rats
After an interval of 3 or 6 hours, the rats were anesthetized with metofane (n=4/group) and blood collected in heparinized tubes. White blood cell counts and differentials were made. One ml of blood from each animal was placed in a 5 ml plastic tube in a shaker bath at 37° C. A23187 at a final concentration of 10 μM was added to the blood and the blood vortexed and incubated for 15 min at 37° C. with gentle shaking. Incubation was terminated by vortexing sample and centrifuging immediately at 1200× G for 15 min at 4° C. The plasma was transferred to 15 ml plastic tubes each containing 8 ml of methanol to precipitate protein followed by vortexing. The samples were stored at -70° C. overnight and the next day the samples were centrifuged at 800× G for 15 min to pellet the precipitate. The samples were dried in a Savant SpeedVac Concentrator Model SVC 200H and reconstituted to the original volume with cold RIA or ELISA buffer. The reconstituted samples were stored at -70° C. until assayed. The assay for LTB4 was performed according to the directions of the ^3 H!RIA kit or ELISA kit (Seragen). The total metabolite level in 1 ml of blood is calculated and reported as ng/10^6 neutrophils. Significance is determined by a one-way analysis of variance with LSD comparisons to control (p≤0.05).

The next test has as its target T1, 5-Lipoxygenase (Homo sapiens, UniProt P09917).
T1 construct: from tissue; host or cells: whole blood of male human donors (endogenous enzyme of the leukocytes)
T1 sequence (P09917 1-674): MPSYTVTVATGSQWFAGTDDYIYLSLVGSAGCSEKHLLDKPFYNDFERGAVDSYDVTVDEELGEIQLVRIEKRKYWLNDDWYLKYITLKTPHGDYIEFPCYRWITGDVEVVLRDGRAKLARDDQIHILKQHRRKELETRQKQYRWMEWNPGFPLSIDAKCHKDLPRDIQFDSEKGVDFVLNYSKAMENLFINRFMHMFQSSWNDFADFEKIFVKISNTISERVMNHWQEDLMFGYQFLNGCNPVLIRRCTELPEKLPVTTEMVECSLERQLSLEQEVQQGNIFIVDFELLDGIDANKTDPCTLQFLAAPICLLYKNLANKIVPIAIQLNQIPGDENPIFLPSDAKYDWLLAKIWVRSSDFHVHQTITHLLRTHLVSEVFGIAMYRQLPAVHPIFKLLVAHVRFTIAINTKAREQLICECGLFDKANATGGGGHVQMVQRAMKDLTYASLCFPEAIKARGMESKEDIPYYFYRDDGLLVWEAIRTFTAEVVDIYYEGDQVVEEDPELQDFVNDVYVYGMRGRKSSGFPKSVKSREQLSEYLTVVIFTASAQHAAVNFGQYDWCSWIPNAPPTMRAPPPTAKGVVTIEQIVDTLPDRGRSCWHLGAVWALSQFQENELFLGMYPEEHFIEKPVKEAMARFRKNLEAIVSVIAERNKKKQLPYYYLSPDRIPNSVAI
The test is described as follows: Inhibition of 5-Lipoxygenase in Human Whole Blood (LTB4, calcium ionophore A23187). Type of test: cell-based. The method, then:
1. Inhibition of 5-Lipoxygenase in Human Whole Blood
Blood is obtained in 50-100 ml quantities from male donors. White blood cell counts and differentials are made. Two ml of blood are placed in a 15 ml polypropylene test tube. Test compounds are solubilized in dimethylsulfoxide and diluted in 1:10 in 10% bovine serum albumin in phosphate buffered saline, pH 7.4 resulting in a final dimethylsulfoxide concentration of 0.1% in the blood. Then, solutions of test compounds are added to the blood in a shaking water bath at 37° C. for 10 minutes prior to the addition of 30 μM calcium ionophore (A23187, Sigma). After ionophore administration, whole blood samples are mixed and incubated for 20 minutes at 37° C. in a shaking water bath. Incubation is terminated by placing samples in an ice bath and immediately adding ethylene glycol-bis-(β-aminoethyl ether)-N, N,N',N'-tetraacetic acid (10 mM). Samples are mixed and centrifuged at 1200× g for 15 minutes at 4° C. Preparation of samples for evaluation by RIA or ELISA is carried out by the following protocol. Plasma is removed from sample tubes, placed in 15 ml polypropylene test tubes containing 8 ml methanol, and then vortexed to precipitate protein. Samples are stored at -70° C. overnight. The next day, samples are centrifuged at 200× g for 15 minutes at 4° C. to pellet the precipitate. Samples are dried in a Savant SpeedVac Concentrator, Model SVC 200H, reconstituted to original volume with ice cold RIA or ELISA buffer, and stored at -70° C. until assayed. The assay for eicosanoids (LTB4, T×B2, and PGE2) is performed as described by the manufacturer of the ^3 H!-RIA kit or ELISA kit (LTB4 -Amersham, T×B2 and PGE2 -Caymen Chemical).
The total eicosanoid level in 2 ml of blood is calculated and reported as ng/10^6 neutrophils. Significance is determined by a one-way analysis of variance with least significant difference (LSD) comparisons to control (p≤0.05) and IC50 's (μM) are determined by regression analysis (Finney, 1978). Drug effects are expressed as percent change from control values.

The next test relates to LTB4. Kind of test: Reverse Passive Arthus Reaction (pleurisy), LTB4 in pleural exudate. Type of test: in vivo, male Lewis rats. The conditions noted are these: 25 mg/kg, p.o. The method, then: 3. Reverse Passive Arthus Reaction
A reverse passive Arthus reaction is induced in the pleural cavity of male Lewis rats (150-200 g; fasted overnight prior to use) by the intravenous administration of bovine serum albumin (BSA; 4 mg/0.2 ml) followed 30 minutes later by the injection of rabbit anti-BSA (1 mg/2.0 ml; lyophilized IgG fraction; Organon Teknika, West Chester, Pa.) into the right pleural space under halothane anesthesia. Drugs or vehicle (0.5% Tween-80) control are administered orally in a volume of 1 ml/100 g body weight at 1 hour prior to the anti-BSA. Animals are sacrificed at either the time of peak eicosanoid production (i.e. 5 minutes after anti-BSA for immunoreactive T×B2, 10 minutes for immunoreactive LTB4, 20 minutes for immunoreactive LTC4) or at the time of peak neutrophil infiltration (4 hours after anti-BSA) by CO2 inhalation. The pleural cavity is then exposed, the fluid exudate removed by gentle vacuum aspiration and the volume of exudate is recorded. For the determination of cellular infiltration, the pleural cavity is rinsed with 3 ml of 0.1% EDTA in sterile saline, and the recovered wash is pooled with the exudate. Cell number is determined on a model ZBI Coulter counter. For determination of eicosanoid production, undiluted pleural exudate is microfuged and the supernatant is extracted with ethanol (8-10 times volume). Extracts are either stored at -20° C., or are evaporated to dryness under a stream of N2 and reconstituted in radioimmunoassay (RIA) buffer.
Eicosanoids are quantitated by RIA according to the procedure specified by the RIA kit manufacturer (Advanced Magnetics, Cambridge, MA). Briefly, 100 μl of ^3 H-labeled eicosanoid and 100 μl of specific antibody are sequentially added to 100 μl of extracted pleural exudate in BGG-phosphate buffer which contains 0.01M phosphate, 0.1% bovine gamma globulin and 0.1% sodium azide at pH 7.0. Antibody-bound eicosanoid is separated from unbound eicosanoid by the addition of 750 μl of dextran (0.4%)-coated charcoal (Norit A) containing 0.1% sodium azide. The mixture is centrifuged at 2000 RPM at 5° C. for 15 minutes to pellet the charcoal and adsorbed unbound eicosanoid. Antibody-bound labeled eicosanoid is quantitated by counting in a liquid scintillation counter, and is correlated to concentration by a standard curve.

Test [1] has as its system LDL. The following applies: in words; cited from earlier work.
For test [2], the system named is LDL. The following applies: in words; cited from earlier work. The source holds these as a separate data set.
The test system of a further test is atherosclerotic lesions. The following applies: WHHL rabbits, in words; cited from earlier work.

The structures appear in SMILES notation.

The IC50 is the concentration that inhibits the measured activity by half. The term inhibition denotes the percentage by which the read-out fell short of the control. Compound `Cc1oc(-c2ccccc2)nc1COc1ccc(CN(O)C(N)=O)cc1Cl` [Example 2, 1-3-Chloro-4-(5-methyl-2-phenyl-oxazol-4-ylmethoxy)-benzyl!-1-hydroxy-urea] displayed an IC50 in the test on Low Density Lipoprotein of 560 nM. Also, the “% Inhibition of LTB4” value was 68% with Lipoxygenase (pretreatment period 3 hr) and 72% in the test with Lipoxygenase (pretreatment period 6 hr). For the same compound, the inhibition at 1 µM at 5-Lipoxygenase turned out to be 31%.
Regarding `Cc1oc(-c2ccccc2)nc1COc1ccc(CN(O)C(N)=O)c(Cl)c1` [Example 3, 1-2-Chloro-4-(5-methyl-2-phenyl-oxazol-4-ylmethoxy)-benzyl!-1-hydroxy-urea], the “% Inhibition of LTB4 Synthesis” value with LTB4 came out at 26%. Also, the “% Inhibition of LTB4” value in the test on Lipoxygenase (pretreatment period 3 hr) is listed as 40%. For the same compound, the inhibition at 10 µM on 5-Lipoxygenase stood at 80%.
In the test with Low Density Lipoprotein, `COc1cc(CN(O)C(N)=O)ccc1OCc1nc(-c2ccccc2)oc1C` [Example 4, 1-Hydroxy-1-3-methoxy-4-(5-methyl-2-phenyl-oxazol-4-ylmethoxy)-benzyl!-urea] yielded an IC50 of 810 nM. For the same compound, the inhibition at 10 µM at 5-Lipoxygenase turned out to be 81%.
Regarding `Cc1oc(-c2ccccc2)nc1COc1ccc(CN(O)C(N)=O)cc1F` [Example 5, 1-3-Fluoro-4-(5-methyl-2-phenyl-oxazol-4-ylmethoxy)-benzyl!-1-hydroxy-urea], the “% Inhibition of LTB4 Synthesis” value in the test with LTB4 is 28%. Moreover, the “% Inhibition of LTB4” value turned out to be 66% in the test with Lipoxygenase (pretreatment period 3 hr) and 68% in the test with Lipoxygenase (pretreatment period 6 hr). Besides, at 5-Lipoxygenase, the inhibition at 1 µM is 47%.
On to `NC(=O)N(O)Cc1ccc(OCc2csc(-c3ccc(Cl)cc3)n2)cc1` [Example 14, 1-4-2-(4-chloro-phenyl)-thiazol-4-ylmethoxy!-benzyl!-1-hydroxy-urea], for which half-maximal inhibition with Low Density Lipoprotein (IC50) required 1100 nM. The inhibition at 1 µM at 5-Lipoxygenase was 71%.
In the case of `CC(C)(Sc1cc(C(C)(C)C)c(O)c(C(C)(C)C)c1)Sc1cc(C(C)(C)C)c(O)c(C(C)(C)C)c1` [Probucol], the “inhibition of cell mediated oxidative modification of LDL” value in the test with LDL [1] is given as “inhibits”. The “inhibition of Cu^+2 mediated oxidative modification of LDL” value with LDL [2] is given as “inhibits”. Besides, the “inhibition of formation of atherosclerotic lesions” value in the test on atherosclerotic lesions was “inhibit the formation of atherosclerotic lesions”.

The values above are taken from patent US5504097A, “N-hydroxyureas as 5-lipoxygenase inhibitors and inhibitors of oxidative modification of low density lipoprotein” (American Home Products Corporation, priority 1995, dated 1996).
